Measurements as given in the NIST ThermoML archive (doi:10.1021/je300202z).
Several values for one entry are separate records, joined by “and”; a condition that tells them apart may be missing. Equal entries are not always repeated. ± gives the expanded uncertainty stated by the source.

Conditions: Liquid, Ebulliometric method (Recirculating still)

SMILES	vapor or sublimation pressure (388.6 K) [kPa]	vapor or sublimation pressure (396.1 K) [kPa]	vapor or sublimation pressure (400.4 K) [kPa]	vapor or sublimation pressure (402.3 K) [kPa]	vapor or sublimation pressure (404.2 K) [kPa]	vapor or sublimation pressure (407.5 K) [kPa]	vapor or sublimation pressure (407.8 K)	vapor or sublimation pressure (408.2 K) [kPa]	vapor or sublimation pressure (416.7 K) [kPa]	vapor or sublimation pressure (421.5 K) [kPa]	vapor or sublimation pressure (423.7 K) [kPa]	vapor or sublimation pressure (425.8 K) [kPa]	vapor or sublimation pressure (428.8 K)	vapor or sublimation pressure (429.7 K) [kPa]
CCOCCO [2-ethoxyethan-1-ol]	53.33 ± 2.4	69.33 ± 2.5	80 ± 2.8	85.33 ± 3	90.66 ± 3.2	100.93 ± 3.3	101.33 ± 3.1 kPa and 100.93 ± 5.6 kPa							
CCOCCOC(C)=O [2-ethoxyethyl ethanoate]								53.33 ± 2.1	69.33 ± 2.2	80 ± 2.5	85.33 ± 2.7	90.66 ± 3.3	101.33 ± 3.7 kPa and 100.93 ± 5.5 kPa	100.93 ± 2.8
